Source: the NIST ThermoML archive (doi:10.1016/j.jct.2015.07.020)
Numbers after ± are expanded uncertainties.

Experiments:
[1] = refractive index (Na D-line) (dimensionless); conditions: 101.33 kPa, Liquid, Standard Abbe refractometry
[2] = 101.33 kPa, Liquid, Vibrating tube method

refractive index ([1]; 298.15 K) | mass density ([2]; 293.15 K) | refractive index ([1]; 293.15 K) | mass density ([2]; 298.15 K) | SMILES
1.3324 ± 0.0005 | – | – | – | O [water]
– | 863.82 ± 0.3 kg/m3 | 1.4912 ± 0.0005 | – | CC(C)c1ccccc1 [isopropylbenzene]
1.493 ± 0.0005 | – | – | 862.51 ± 0.3 kg/m3 | CCc1ccccc1 [ethylbenzene]
